Columns and labels:
[1] = system: sorbitol accumulation in the sciatic nerve; experiment: sorbitol accumulation in sciatic nerve of streptozotocin-induced diabetic rats, 15 day study; type: in vivo, rat
Excerpt: (§1) The test methods employed to determine the efficacy are essentially those of Mylari, et al., J. Med. Chem. 34: 108, 1991.

[2] = system: nerve conduction velocity (NCV) in the sciatic nerve; experiment: 3 month study in STZ-diabetic rats, nerve conduction velocity; type: in vivo, rat; conditions: 3 months treatment
NCV = experiment: comparison with zenarestat and zopolrestat, inhibition of decline in NCV; type: in vivo
Excerpt: 3-[(4,5,7-trifluoro-1,3-benzothiazol-2-yl)methyl]-1H-indol-1-yl}acetic acid monohydrate compares very favorably with the ability of zenarestat and zopolrestat to inhibit the decline in NCV. […]

[3] = system: sorbitol levels in the sciatic nerve and lens; experiment: 8-day STZ diabetic rat model, sorbitol lowering versus known ARIs; type: in vivo; conditions: 10 mg/kg/day
Excerpt: 3-[(4,5,7-trifluoro-1,3-benzothiazol-2-yl)methyl]-1H-indol-1-yl}acetic acid monohydrate is compared to the known […] inhibitors (ARI) zenarestat and zopolrestat in an 8-day STZ diabetic rat model.

[4] = system: nerve conduction velocity (NCV) in the sciatic nerve; experiment: 4-week study in STZ-diabetic rats, loss of nerve conduction velocity; type: in vivo, rat
Tissue Sorbitol Levels = experiment: tissue sorbitol levels in the STZ induced diabetic rat, 30 and 90 day studies; type: in vivo
Excerpt: as §1
[(4,5,7-trifluoro-1,3-benzothiazol-2-yl)methyl]-1H-indol-1-yl}acetic acid monohydrate in reducing Tissue Sorbitol Levels in the STZ Induced Diabetic Rat

## O=C(O)Cn1cc(Cc2nc3c(F)c(F)cc(F)c3s2)c2ccccc21 [Example 1, 3-(4,5,7-Trifluorobenzothiazol-2-yl)methyl-indole-N-acetic Acid, monohydrate]
[1]; 15 day study
  ED50, sorbitol accumulation in rat sciatic nerve: 1.3 mg/kg/day
[1]; 15 day study, 4.8 mg/kg/day
  inhibition of sorbitol accumulation, rat sciatic nerve: 100%
[1]; STZ diabetic rat tissues
  changes in fructose: levels were reduced
  changes in mysinositol: levels were increased
[2]; 5 mg/kg/day
  Improvement in NCV: 50%
[2]; 10 mg/kg/day
  Improvement in NCV: 68%
[2]; 25 mg/kg/day
  Improvement in NCV: 105%
NCV; 25 mg/kg/day, study 4 weeks, treatment 3 weeks
  Improvement in NCV: 79%
[3]
  Lens sorbitol lowering: 25-42%
  Sciatic Nerve sorbitol lowering: 100%
[4]; 5 mg/kg/day
  inhibition of decline of nerve conduction velocity (NCV) in the sciatic nerve: 14%
[4]; 10 mg/kg/day
  inhibition of decline of nerve conduction velocity (NCV) in the sciatic nerve: 41%
[4]; 25 mg/kg/day
  inhibition of decline of nerve conduction velocity (NCV) in the sciatic nerve: 79%
Tissue Sorbitol Levels; 30 days, 5 mg/kg/day
  % Sorbitol Reduction, Lens: 88%
  % Sorbitol Reduction, Sciatic Nerve: 100%
Tissue Sorbitol Levels; 30 days, 10 mg/kg/day
  % Sorbitol Reduction, Lens: 90%
  % Sorbitol Reduction, Sciatic Nerve: 100%
Tissue Sorbitol Levels; 30 days, 25 mg/kg/day
  % Sorbitol Reduction, Lens: 95%
  % Sorbitol Reduction, Sciatic Nerve: 100%
Tissue Sorbitol Levels; 90 days, 5 mg/kg/day
  % Sorbitol Reduction, Kidney Cortex: 33%
  % Sorbitol Reduction, Kidney Medulla: 36%
  % Sorbitol Reduction, Retina: 89%
  % Sorbitol Reduction, Sciatic Nerve: 100%
Tissue Sorbitol Levels; 90 days, 10 mg/kg/day
  % Sorbitol Reduction, Kidney Cortex: 25%
  % Sorbitol Reduction, Kidney Medulla: 47%
  % Sorbitol Reduction, Retina: 99%
  % Sorbitol Reduction, Sciatic Nerve: 100%
Tissue Sorbitol Levels; 90 days, 25 mg/kg/day
  % Sorbitol Reduction, Kidney Cortex: 45%
  % Sorbitol Reduction, Kidney Medulla: 58%
  % Sorbitol Reduction, Retina: 96%
  % Sorbitol Reduction, Sciatic Nerve: 100%

## O=C(O)Cn1c(=O)n(Cc2ccc(Br)cc2F)c(=O)c2ccc(Cl)cc21 [zenarestat]
NCV; 32 mg/kg/day, study 2 weeks, treatment 2 weeks
  Improvement in NCV: 48%
[3]
  Lens sorbitol lowering: 0%
  Sciatic Nerve sorbitol lowering: 52%

## O=C(O)Cc1nn(Cc2nc3cc(C(F)(F)F)ccc3s2)c(=O)c2ccccc12 [zopolrestat]
NCV; 25 mg/kg/day, study 4 weeks, treatment 4 weeks
  Improvement in NCV: 43%
[3]
  Lens sorbitol lowering: 0%
  Sciatic Nerve sorbitol lowering: 71%

From patent US20060100255A1, “Substituted indolealkanoic acids derivative and formulations containing same for use in the treatment of diabetic complications” (priority 2002, published 2006)
